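All cell lines were grown in 96-well plates and treated with compound for 48 hours. At the GI50, growth is halved. At the TGI there is no net growth.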
What was measured:
Assay in all cases: growth of human tumour cells (NCI), 48 h
NCI-H460 lung = system: NCI-H460 lung
HOP-92 NSCLC = system: HOP-92 NSCLC
ACHN renal = system: ACHN renal
SN12C renal = system: SN12C renal
CCRF-CEM leukemia = system: CCRF-CEM leukemia
SF-295 CNS = system: SF-295 CNS
OVCAR-8 ovarian = system: OVCAR-8 ovarian
OVCAR-4 ovarian = system: OVCAR-4 ovarian
NCI-H522 lung = system: NCI-H522 lung
MALME-3M melanoma = system: MALME-3M melanoma

Row | Structure (SMILES) | TGI (NCI-H460 lung) | TGI (HOP-92 NSCLC) | TGI (ACHN renal) | TGI (SN12C renal) | TGI (CCRF-CEM leukemia) | TGI (SF-295 CNS) | TGI (OVCAR-8 ovarian) | TGI (OVCAR-4 ovarian) | TGI (NCI-H522 lung) | TGI (MALME-3M melanoma) | GI50 (NCI-H522 lung) | GI50 (NCI-H460 lung) | GI50 (HOP-92 NSCLC) | GI50 (ACHN renal) | GI50 (SN12C renal) | GI50 (CCRF-CEM leukemia) | GI50 (SF-295 CNS) | GI50 (OVCAR-8 ovarian) | GI50 (MALME-3M melanoma) | GI50 (OVCAR-4 ovarian)
1 | CC(=S)NC1C(Oc2ccc3c(C)cc(=O)oc3c2)OC(CO)C(O)C1O (configuration not stated) | > 100 µM | > 100 µM | > 100 µM | > 100 µM | > 100 µM | > 100 µM | > 100 µM | > 100 µM |  |  |  |  |  |  |  |  |  |  |  | 
2 | COc1cccc(C(=O)C(O)c2cccc(OC)c2OC)c1OC (configuration not stated) | > 100 µM | > 100 µM | > 100 µM | > 100 µM | > 100 µM | > 100 µM | > 100 µM | > 100 µM | > 100 µM | > 100 µM |  |  |  |  |  |  |  |  |  | 
3 | COc1nc(NC2OCC(OC(C)=O)C(OC(C)=O)C2OC(C)=O)c(N=C(C)C(C)=O)c(=O)n1C (configuration not stated) | > 100 µM | > 100 µM | > 100 µM | > 100 µM | > 100 µM | > 100 µM | > 100 µM | > 100 µM |  | > 100 µM |  |  |  |  |  |  |  |  |  | 
4 | C[Si](C)(C)C1=C2C(=O)c3ccccc3C(=O)C2=C([Si](C)(C)C)[C@@H]2CCCC[C@H]12 | > 100 µM | > 100 µM | > 100 µM | > 100 µM | > 100 µM | > 100 µM |  | > 100 µM | > 100 µM | > 100 µM |  |  |  |  |  |  |  |  |  | 
5 | CCC1OC(=O)C(C)C(OC2CC(C)(O)C(O)C(C)O2)C(C)C(O)C(C)(O)CC(C)C(=O)C(C)C(O)C1C (configuration not stated) | > 300 µM | > 300 µM |  | > 300 µM | > 300 µM | > 300 µM | > 300 µM | > 300 µM | > 300 µM | > 300 µM |  |  |  |  |  |  |  |  |  | 
6 | CN1C(=N\S(=O)(=O)c2ccc(Cl)cc2)/C(=N/N=P(c2ccccc2)(c2ccccc2)c2ccccc2)c2ccccc21 | > 100 µM |  | > 100 µM | > 100 µM | > 100 µM | > 100 µM | > 100 µM | > 100 µM | > 100 µM | > 100 µM |  |  |  |  |  |  |  |  |  | 
7 | Cc1cccc2ns[s+]c12 | > 100 µM | > 100 µM | > 100 µM | > 100 µM | > 100 µM | > 100 µM | > 100 µM | > 100 µM |  | > 100 µM |  |  |  |  |  |  |  |  |  | 
8 | O=C(Cl)c1cc([N+](=O)[O-])cc([N+](=O)[O-])c1 | > 100 µM | > 100 µM | > 100 µM |  | > 100 µM | > 100 µM |  | > 100 µM | > 100 µM | > 100 µM |  |  |  |  |  |  |  |  |  | 
9 | CN(C)CCCn1c2c(c3ccncc3c1=O)C(=O)c1ccccc1-2 | 3.63 µM | 2.39 µM | 10.4 µM | 19.1 µM | 13 µM | 10.3 µM | 15.3 µM | 8.67 µM | 11.9 µM | 2.5 µM | 1.61 µM | 0.438 µM | 0.155 µM | 0.339 µM | 0.958 µM | 0.77 µM | 1.06 µM | 0.616 µM | 0.978 µM | 1.37 µM
10 | CN(C)CCCN1c2ccc3ccccc3c2Sc2cccc(Cl)c21 | 3.25 µM | 9.1 µM | 12.6 µM | 20.3 µM | 3.52 µM | 12.4 µM | 18 µM | 13.8 µM | 10.5 µM | 23 µM |  |  |  |  |  |  |  |  |  | 
11 | O=C(CCc1nnc2s/c(=C\c3ccc(Cl)cc3Cl)c(=O)n12)Nc1cc(Cl)c(Cl)cc1Cl |  | > 100 µM | > 100 µM | > 100 µM | > 100 µM | > 100 µM | > 100 µM | > 100 µM | > 100 µM | > 100 µM |  |  |  | > 100 µM | > 100 µM | > 100 µM | > 100 µM | > 100 µM | > 100 µM | > 100 µM

Source: PubChem BioAssay (NCI)
